What was measured:
Experiment in all cases: relative viability (nuclei count vs DMSO), 5 days (fraction); higher = more cells survive
[1] = test system: NCI-H2347
Outline: (§1)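 Five library-drug doses in √10 steps were combined with a fixed anchor-drug dose, or a single drug was given alone, by pin tool to lung cancer cell lines in 1536-well plates the day after seeding. Nuclei were stained and counted after 5 days. Relative viability is the nuclei count in treated wells over that in vehicle wells, taken as the median of duplicate plates.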

[2] = test system: RERF-LC-KJ
Outline: as §1

[3] = test system: PC-14
Outline: as §1

[4] = test system: NCI-H2087
Outline: as §1

[5] = test system: 201T
Outline: as §1

[6] = test system: NCI-H2126
Outline: as §1

[7] = test system: COR-L 105
Outline: as §1

[8] = test system: NCI-H1666
Outline: as §1

[9] = test system: NCI-H2405
Outline: as §1

[10] = test system: NCI-H1915
Outline: as §1

[11] = test system: NCI-H647
Outline: as §1

[12] = test system: H3255
Outline: as §1

[13] = test system: NCI-H650
Outline: as §1

[14] = test system: NCI-H23
Outline: as §1

[15] = test system: NCI-H661
Outline: as §1

[16] = test system: HCC-78
Outline: as §1

[17] = test system: EPLC-272H
Outline: as §1

[18] = test system: HCC-827
Outline: as §1

[19] = test system: LCLC-97TM1
Outline: as §1

[20] = test system: NCI-H520
Outline: as §1

[21] = test system: LC-2-ad
Outline: as §1

## O=c1cc(N2CCOCC2)oc2c(-c3cccc4c3sc3ccccc34)cccc12 + Cc1nc(NC(=O)N2CCC[C@H]2C(N)=O)sc1-c1ccnc(C(C)(C)C(F)(F)F)c1 [Alpelisib] (partner 2 µM)
[1]; first compound 0.01 µM
  relative viability: 1.17
[1]; first compound 0.03162 µM
  relative viability: 1.04
[1]; first compound 0.1 µM
  relative viability: 1.04
[1]; first compound 0.3162 µM
  relative viability: 1
[1]; first compound 1 µM
  relative viability: 1.02
[2]; first compound 0.01 µM
  relative viability: 0.834
[2]; first compound 0.03162 µM
  relative viability: 0.892
[2]; first compound 0.1 µM
  relative viability: 0.981
[2]; first compound 0.3162 µM
  relative viability: 0.86
[2]; first compound 1 µM
  relative viability: 0.9
[3]; first compound 0.01 µM
  relative viability: 0.987
[3]; first compound 0.03162 µM
  relative viability: 0.891
[3]; first compound 0.1 µM
  relative viability: 0.931
[3]; first compound 0.3162 µM
  relative viability: 1.04
[3]; first compound 1 µM
  relative viability: 0.978
[4]; first compound 0.01 µM
  relative viability: 1.12
[4]; first compound 0.03162 µM
  relative viability: 1.02
[4]; first compound 0.1 µM
  relative viability: 1.13
[4]; first compound 0.3162 µM
  relative viability: 1.23
[4]; first compound 1 µM
  relative viability: 1.16
[5]; first compound 0.01 µM
  relative viability: 1
[5]; first compound 0.03162 µM
  relative viability: 0.994
[5]; first compound 0.1 µM
  relative viability: 1.07
[5]; first compound 0.3162 µM
  relative viability: 0.979
[5]; first compound 1 µM
  relative viability: 0.879
[6]; first compound 0.01 µM
  relative viability: 0.721
[6]; first compound 0.03162 µM
  relative viability: 0.736
[6]; first compound 0.1 µM
  relative viability: 0.762
[6]; first compound 0.3162 µM
  relative viability: 0.733
[6]; first compound 1 µM
  relative viability: 0.729
[7]; first compound 0.01 µM
  relative viability: 1.1
[7]; first compound 0.03162 µM
  relative viability: 0.933
[7]; first compound 0.1 µM
  relative viability: 0.834
[7]; first compound 0.3162 µM
  relative viability: 1.06
[7]; first compound 1 µM
  relative viability: 0.838
[8]; first compound 0.01 µM
  relative viability: 0.936
[8]; first compound 0.03162 µM
  relative viability: 0.864
[8]; first compound 0.1 µM
  relative viability: 0.977
[8]; first compound 0.3162 µM
  relative viability: 0.963
[8]; first compound 1 µM
  relative viability: 0.832
[9]; first compound 0.01 µM
  relative viability: 0.895
[9]; first compound 0.03162 µM
  relative viability: 0.885
[9]; first compound 0.1 µM
  relative viability: 0.838
[9]; first compound 0.3162 µM
  relative viability: 0.835
[9]; first compound 1 µM
  relative viability: 0.827
[10]; first compound 0.01 µM
  relative viability: 1.08
[10]; first compound 0.03162 µM
  relative viability: 1.04
[10]; first compound 0.1 µM
  relative viability: 1.07
[10]; first compound 0.3162 µM
  relative viability: 1.04
[10]; first compound 1 µM
  relative viability: 1.06
[11]; first compound 0.01 µM
  relative viability: 1.18
[11]; first compound 0.03162 µM
  relative viability: 1.2
[11]; first compound 0.1 µM
  relative viability: 1.24
[11]; first compound 0.3162 µM
  relative viability: 1.11
[11]; first compound 1 µM
  relative viability: 0.913
[12]; first compound 0.01 µM
  relative viability: 0.681
[12]; first compound 0.03162 µM
  relative viability: 0.698
[12]; first compound 0.1 µM
  relative viability: 0.784
[12]; first compound 0.3162 µM
  relative viability: 0.685
[12]; first compound 1 µM
  relative viability: 0.768
[13]; first compound 0.01 µM
  relative viability: 1.06
[13]; first compound 0.03162 µM
  relative viability: 1.15
[13]; first compound 0.3162 µM
  relative viability: 1.21
[13]; first compound 1 µM
  relative viability: 1.09
[14]; first compound 0.01 µM
  relative viability: 0.71
[14]; first compound 0.03162 µM
  relative viability: 0.662
[14]; first compound 0.3162 µM
  relative viability: 0.665
[14]; first compound 1 µM
  relative viability: 0.745
[15]; first compound 0.01 µM
  relative viability: 0.556
[15]; first compound 0.03162 µM
  relative viability: 0.243
[15]; first compound 0.1 µM
  relative viability: 0.591
[15]; first compound 0.3162 µM
  relative viability: 0.606
[15]; first compound 1 µM
  relative viability: 0.506
[16]; first compound 0.01 µM
  relative viability: 0.374
[16]; first compound 0.03162 µM
  relative viability: 0.305
[16]; first compound 0.1 µM
  relative viability: 0.299
[16]; first compound 0.3162 µM
  relative viability: 0.406
[16]; first compound 1 µM
  relative viability: 0.331
[17]; first compound 0.01 µM
  relative viability: 0.955
[17]; first compound 0.03162 µM
  relative viability: 0.957
[17]; first compound 0.3162 µM
  relative viability: 1.03
[17]; first compound 1 µM
  relative viability: 0.891
[18]; first compound 0.01 µM
  relative viability: 0.918
[18]; first compound 0.03162 µM
  relative viability: 0.931
[18]; first compound 0.1 µM
  relative viability: 0.911
[18]; first compound 0.3162 µM
  relative viability: 0.947
[18]; first compound 1 µM
  relative viability: 0.914
[19]; first compound 0.01 µM
  relative viability: 0.287
[19]; first compound 0.03162 µM
  relative viability: 0.269
[19]; first compound 0.3162 µM
  relative viability: 0.201
[19]; first compound 1 µM
  relative viability: 0.244
[20]; first compound 0.01 µM
  relative viability: 0.997
[20]; first compound 0.03162 µM
  relative viability: 1.09
[20]; first compound 0.1 µM
  relative viability: 0.915
[20]; first compound 0.3162 µM
  relative viability: 0.841
[20]; first compound 1 µM
  relative viability: 0.996
[21]; first compound 0.01 µM
  relative viability: 0.91
[21]; first compound 0.1 µM
  relative viability: 0.976
[21]; first compound 0.3162 µM
  relative viability: 0.839
[21]; first compound 1 µM
  relative viability: 0.906
